Results published in patent US11730719B2, “Pharmaceutical composition” (KOWA COMPANY, LTD., priority 2017, dated 2023).

Tests used:
[1] = Hygroscopic property evaluation of pemafibrate crystal (Karl Fischer moisture content); assay type: physicochemical
Protocol: A pemafibrate crystal was produced by recrystallizing pemafibrate from an ethyl acetate/heptane mixture in accordance with the method for producing a pemafibrate crystal as described in Non-Patent Document 1.
250 mg of the pemafibrate crystal was placed in a dish, and stored in an uncapped state (open state) in a dark place at 25° C. and 83% relative humidity (RH) for 3 months. The hygroscopic property was evaluated by measuring the moisture contents before and after the storage. The measurement of the moisture content was performed by a coulometric titration method in accordance with The Japanese Pharmacopoeia, 17th Edition, Moisture Content Measurement Method (Karl Fischer Method).

[2] = Examination of stability of pemafibrate (open dish storage, related substances by HPLC); assay type: physicochemical
Protocol: 250 mg of pemafibrate was placed in a dish, and stored in an uncapped state (open state) in a dark place at 40° C. and 75% relative humidity (RH) for 3 months.
The sum of related substance-derived peak areas was evaluated in terms of a ratio (%) to the pemafibrate-derived peak area using an HPLC apparatus, and the ratio was defined as the “Total amount (%) of related substances”.

Row | Moisture content (%) ([1]; After storage at 25° C. and 83% RH for 3 months, open state in dish, dark place) | Moisture content (%) ([1]; Before storage, 250 mg in dish) | Hygroscopic property ([1]; storage at 83% RH for 3 months) | Total amount (%) of related substances ([2]; After storage at 40° C. and 75% RH for 3 months, open state in dish, dark place) [%] | Total amount (%) of related substances ([2]; Before storage, 250 mg in dish) [%] | Stability against moisture content ([2]; storage at 75% RH for 3 months) | Structure (SMILES)
1 | <0.1 | <0.1 | not hygroscopic | – | – | – | CC[C@@H](Oc1cccc(CN(CCCOc2ccc(OC)cc2)c2nc3ccccc3o2)c1)C(=O)O [Pemafibrate crystal, (2R)-2-[3-([1,3-Benzoxazol-2-yl[3-(4-methoxyphenoxy)propyl]amino]methyl)phenoxy]butanoic acid]
2 | – | – | – | <0.05 | <0.05 | stable | CC[C@@H](Oc1cccc(CN(CCCOc2ccc(OC)cc2)c2nc3ccccc3o2)c1)C(=O)O [Pemafibrate, (2R)-2-[3-([1,3-Benzoxazol-2-yl[3-(4-methoxyphenoxy)propyl]amino]methyl)phenoxy]butanoic acid]
